Source: ChEMBL document CHEMBL1201862, “PubChem BioAssay data set” (2004)
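These data come from cells grown in 96-well plates and exposed to compound for 48 hours at five concentrations. GI50: concentration for 50% inhibition of growth.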 Active and inactive are the calls of the source. No stated cut-off is given here; in the data, active = GI50 up to about 1.1 µM and inactive = higher.

Assays:
Assay in all cases: inhibition of tumour cell growth, NCI panel, 48 h
786-0 = test system: 786-0
A498 = test system: A498
A549 = test system: A549
ACHN = test system: ACHN
CCRF-CEM = test system: CCRF-CEM
COLO 205 = test system: COLO 205
DLD-1 = test system: DLD-1
DMS-114 = test system: DMS-114
DMS-273 = test system: DMS-273
EKVX = test system: EKVX
HCC 2998 = test system: HCC 2998
HCT-116 = test system: HCT-116
HCT-15 = test system: HCT-15
HL-60 = test system: HL-60
HOP-18 = test system: HOP-18
HOP-62 = test system: HOP-62
HT-29 = test system: HT-29
IGROV-1 = test system: IGROV-1
K562 = test system: K562
KM-20L2 = test system: KM-20L2
KM12 = test system: KM12
LOX IMVI = test system: LOX IMVI
LXFL 529 = test system: LXFL 529
M14 = test system: M14
M19-MEL = test system: M19-MEL
MOLT-4 = test system: MOLT-4
Malme-3M = test system: Malme-3M
NCI-H226 = test system: NCI-H226
NCI-H23 = test system: NCI-H23
NCI-H460 = test system: NCI-H460
NCI-H522 = test system: NCI-H522
OVCAR-3 = test system: OVCAR-3
OVCAR-5 = test system: OVCAR-5
OVCAR-8 = test system: OVCAR-8
RXF 393 = test system: RXF 393
RXF 631 = test system: RXF 631
SF-268 = test system: SF-268
SF-539 = test system: SF-539
SK-MEL-28 = test system: SK-MEL-28
SK-MEL-2 = test system: SK-MEL-2
SK-MEL-5 = test system: SK-MEL-5
SK-OV-3 = test system: SK-OV-3
SN12C = test system: SN12C
SNB-19 = test system: SNB-19
SNB-75 = test system: SNB-75
SNB-78 = test system: SNB-78
SR = test system: SR
SW-620 = test system: SW-620
TK-10 = test system: TK-10
U-251 = test system: U-251
UACC-62 = test system: UACC-62
UO-31 = test system: UO-31
CAKI-1 = test system: CAKI-1
OVCAR-4 = test system: OVCAR-4
RPMI-8226 = test system: RPMI-8226
SF-295 = test system: SF-295
XF498 = test system: XF498
HOP-92 = test system: HOP-92
UACC-257 = test system: UACC-257

Measured: GI50

Cc1ccccc1C1OC(=O)c2ccccc21 (centres undefined)
inactive: 786-0 > 100 µM | A498 > 100 µM | A549 > 100 µM | ACHN > 100 µM | CCRF-CEM > 100 µM | COLO 205 > 100 µM | DLD-1 > 100 µM | DMS-114 > 100 µM | DMS-273 > 100 µM | EKVX > 100 µM | HCC 2998 > 100 µM | HCT-116 > 100 µM | HL-60 > 100 µM | HOP-18 > 100 µM | HOP-62 > 100 µM | HT-29 > 100 µM | IGROV-1 > 100 µM | K562 > 100 µM | KM-20L2 > 100 µM | KM12 > 100 µM | LOX IMVI > 100 µM | LXFL 529 > 100 µM | M14 > 100 µM | M19-MEL > 100 µM | MOLT-4 > 100 µM | Malme-3M > 100 µM | NCI-H226 > 100 µM | NCI-H23 > 100 µM | NCI-H460 > 100 µM | NCI-H522 > 100 µM | OVCAR-3 > 100 µM | OVCAR-5 > 100 µM | OVCAR-8 83.8 µM | RXF 393 > 100 µM | RXF 631 > 100 µM | SF-268 > 100 µM | SF-539 > 100 µM | SK-MEL-28 > 100 µM | SK-MEL-2 > 100 µM | SK-MEL-5 > 100 µM | SK-OV-3 > 100 µM | SN12C > 100 µM | SNB-19 > 100 µM | SNB-75 77.3 µM | SNB-78 > 100 µM | SR > 100 µM | SW-620 > 100 µM | TK-10 > 100 µM | U-251 > 100 µM | UACC-62 56.1 µM | UO-31 > 100 µM
> 100 µM: HCT-15

C=CC/N=C1\NC(=O)C(CC(=O)Nc2ccc(C)cc2)S1 (centres undefined)
inactive: 786-0 > 100 µM | A498 > 100 µM | A549 > 100 µM | ACHN > 100 µM | CAKI-1 > 100 µM | CCRF-CEM > 100 µM | COLO 205 > 100 µM | DLD-1 > 100 µM | DMS-114 > 100 µM | DMS-273 > 100 µM | EKVX > 100 µM | HCC 2998 > 100 µM | HL-60 > 100 µM | HOP-18 > 100 µM | HOP-62 > 100 µM | HT-29 > 100 µM | IGROV-1 > 100 µM | K562 > 100 µM | KM-20L2 > 100 µM | KM12 > 100 µM | LOX IMVI > 100 µM | LXFL 529 > 100 µM | M14 > 100 µM | M19-MEL > 100 µM | MOLT-4 > 100 µM | Malme-3M > 100 µM | NCI-H226 > 100 µM | NCI-H23 > 100 µM | NCI-H460 > 100 µM | NCI-H522 > 100 µM | OVCAR-3 > 100 µM | OVCAR-4 > 100 µM | OVCAR-5 > 100 µM | OVCAR-8 > 100 µM | RPMI-8226 > 100 µM | RXF 393 > 100 µM | RXF 631 > 100 µM | SF-268 > 100 µM | SF-295 > 100 µM | SF-539 > 100 µM | SK-MEL-28 > 100 µM | SK-MEL-2 > 100 µM | SK-MEL-5 > 100 µM | SK-OV-3 > 100 µM | SN12C > 100 µM | SNB-19 > 100 µM | SNB-75 > 100 µM | SW-620 > 100 µM | TK-10 > 100 µM | U-251 > 100 µM | UACC-62 > 100 µM | UO-31 > 100 µM | XF498 > 100 µM
> 100 µM: HCT-15

CC(O)c1ccc[n+](Cc2ccccc2)c1 (centres undefined)
> 400 µM: HCT-15
inactive: 786-0 > 400 µM | A549 > 400 µM | ACHN > 400 µM | CAKI-1 > 400 µM | CCRF-CEM > 400 µM | COLO 205 > 400 µM | DLD-1 > 400 µM | DMS-114 > 400 µM | DMS-273 > 400 µM | EKVX > 400 µM | HCC 2998 > 400 µM | HCT-116 > 400 µM | HL-60 > 400 µM | HOP-18 > 400 µM | HOP-62 > 400 µM | HOP-92 > 400 µM | HT-29 > 400 µM | IGROV-1 > 400 µM | K562 > 400 µM | KM-20L2 > 400 µM | KM12 > 400 µM | LOX IMVI > 400 µM | LXFL 529 > 400 µM | M19-MEL > 400 µM | MOLT-4 > 400 µM | Malme-3M > 400 µM | NCI-H226 > 400 µM | NCI-H23 > 400 µM | NCI-H460 > 400 µM | NCI-H522 > 400 µM | OVCAR-3 > 400 µM | OVCAR-5 > 400 µM | OVCAR-8 > 400 µM | RPMI-8226 > 400 µM | RXF 393 > 400 µM | RXF 631 > 400 µM | SF-268 > 400 µM | SF-295 > 400 µM | SF-539 > 400 µM | SK-MEL-28 > 400 µM | SK-MEL-2 > 400 µM | SK-MEL-5 > 400 µM | SK-OV-3 > 400 µM | SN12C > 400 µM | SNB-19 > 400 µM | SR > 400 µM | SW-620 > 400 µM | TK-10 > 400 µM | U-251 > 400 µM | UACC-257 > 400 µM | UACC-62 > 400 µM | XF498 > 400 µM
